Values belong to the molecule of their own block, whether it stands above or below them.
Key:
[1] = target: T1, Integrin alpha-V/beta-5 (Homo sapiens, UniProt P06756+P18084); experiment: Antagonist activity at alphavbeta5 integrin receptor (unknown origin) by cell-free ELISA; type: protein-complex assay
[2] = target: T2, Integrin alpha-V/beta-3 (Homo sapiens, UniProt P05106+P06756); experiment: Antagonist activity at alphavbeta3 integrin receptor (unknown origin) by cell-free ELISA; type: protein-complex assay
T2 sequence (P05106 27-788 limits assumed): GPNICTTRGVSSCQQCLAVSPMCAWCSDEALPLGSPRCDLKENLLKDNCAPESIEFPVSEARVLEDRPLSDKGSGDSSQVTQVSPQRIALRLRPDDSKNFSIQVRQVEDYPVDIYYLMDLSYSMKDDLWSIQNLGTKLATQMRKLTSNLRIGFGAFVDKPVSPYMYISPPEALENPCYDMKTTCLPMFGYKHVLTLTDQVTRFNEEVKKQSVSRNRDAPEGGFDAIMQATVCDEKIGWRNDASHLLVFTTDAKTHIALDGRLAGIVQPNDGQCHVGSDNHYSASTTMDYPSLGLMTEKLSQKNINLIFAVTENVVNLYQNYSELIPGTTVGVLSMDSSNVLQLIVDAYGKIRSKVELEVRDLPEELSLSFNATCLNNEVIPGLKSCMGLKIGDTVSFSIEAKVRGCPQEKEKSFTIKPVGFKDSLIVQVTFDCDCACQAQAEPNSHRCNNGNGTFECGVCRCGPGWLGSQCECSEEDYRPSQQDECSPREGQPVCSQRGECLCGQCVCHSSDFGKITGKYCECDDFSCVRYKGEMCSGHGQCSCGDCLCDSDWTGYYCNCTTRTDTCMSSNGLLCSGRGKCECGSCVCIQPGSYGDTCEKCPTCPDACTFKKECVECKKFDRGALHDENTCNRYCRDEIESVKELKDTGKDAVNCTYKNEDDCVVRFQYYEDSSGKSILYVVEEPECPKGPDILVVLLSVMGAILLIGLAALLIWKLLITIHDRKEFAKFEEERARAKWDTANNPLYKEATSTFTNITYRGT
T2 sequence (P06756 31-889 limits assumed): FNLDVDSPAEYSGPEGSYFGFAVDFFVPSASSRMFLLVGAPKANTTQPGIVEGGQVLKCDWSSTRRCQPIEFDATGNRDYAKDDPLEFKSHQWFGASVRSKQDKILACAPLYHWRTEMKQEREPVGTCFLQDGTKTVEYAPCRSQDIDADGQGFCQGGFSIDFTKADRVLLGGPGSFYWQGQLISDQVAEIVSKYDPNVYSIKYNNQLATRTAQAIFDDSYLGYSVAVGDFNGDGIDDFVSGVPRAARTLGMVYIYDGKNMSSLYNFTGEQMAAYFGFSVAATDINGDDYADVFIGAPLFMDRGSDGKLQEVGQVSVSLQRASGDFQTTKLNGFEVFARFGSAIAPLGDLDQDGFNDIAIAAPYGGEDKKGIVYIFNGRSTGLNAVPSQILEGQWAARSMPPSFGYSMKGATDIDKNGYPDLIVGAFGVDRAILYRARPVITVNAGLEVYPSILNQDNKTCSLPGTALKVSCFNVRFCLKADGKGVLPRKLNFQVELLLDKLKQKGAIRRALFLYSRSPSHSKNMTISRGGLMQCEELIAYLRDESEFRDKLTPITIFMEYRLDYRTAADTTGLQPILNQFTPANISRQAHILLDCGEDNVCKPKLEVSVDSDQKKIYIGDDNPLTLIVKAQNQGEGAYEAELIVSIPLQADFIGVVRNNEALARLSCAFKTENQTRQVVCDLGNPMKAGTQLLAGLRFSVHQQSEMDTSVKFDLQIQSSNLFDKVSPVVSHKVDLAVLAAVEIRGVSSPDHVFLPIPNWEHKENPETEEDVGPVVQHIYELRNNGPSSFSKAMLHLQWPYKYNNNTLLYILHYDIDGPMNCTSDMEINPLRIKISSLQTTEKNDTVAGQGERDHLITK
T2 sequence (P06756 891-1048 limits assumed): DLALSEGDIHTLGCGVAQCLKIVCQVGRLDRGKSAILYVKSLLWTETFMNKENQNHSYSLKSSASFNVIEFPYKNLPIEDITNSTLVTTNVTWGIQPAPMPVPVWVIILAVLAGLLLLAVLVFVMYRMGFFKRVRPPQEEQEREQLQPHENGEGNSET

[3] = target: T2, Integrin alpha-V/beta-3; experiment: Antagonist activity at alphavbeta3 integrin receptor (unknown origin) by cell-based ELISA
[4] = target: Integrin alpha-IIb/beta-3 (Homo sapiens, UniProt P05106+P08514); experiment: Antagonist activity at alpha2bbeta3 integrin receptor (unknown origin) by cell-free ELISA; type: protein-complex assay
Sequence of Integrin alpha-IIb/beta-3 (Homo sapiens, UniProt P05106+P08514) (P05106 27-788 limits assumed): as the sequence (P05106 27-788 limits assumed) above
Sequence of Integrin alpha-IIb/beta-3 (Homo sapiens, UniProt P05106+P08514) (P08514 32-887 limits assumed): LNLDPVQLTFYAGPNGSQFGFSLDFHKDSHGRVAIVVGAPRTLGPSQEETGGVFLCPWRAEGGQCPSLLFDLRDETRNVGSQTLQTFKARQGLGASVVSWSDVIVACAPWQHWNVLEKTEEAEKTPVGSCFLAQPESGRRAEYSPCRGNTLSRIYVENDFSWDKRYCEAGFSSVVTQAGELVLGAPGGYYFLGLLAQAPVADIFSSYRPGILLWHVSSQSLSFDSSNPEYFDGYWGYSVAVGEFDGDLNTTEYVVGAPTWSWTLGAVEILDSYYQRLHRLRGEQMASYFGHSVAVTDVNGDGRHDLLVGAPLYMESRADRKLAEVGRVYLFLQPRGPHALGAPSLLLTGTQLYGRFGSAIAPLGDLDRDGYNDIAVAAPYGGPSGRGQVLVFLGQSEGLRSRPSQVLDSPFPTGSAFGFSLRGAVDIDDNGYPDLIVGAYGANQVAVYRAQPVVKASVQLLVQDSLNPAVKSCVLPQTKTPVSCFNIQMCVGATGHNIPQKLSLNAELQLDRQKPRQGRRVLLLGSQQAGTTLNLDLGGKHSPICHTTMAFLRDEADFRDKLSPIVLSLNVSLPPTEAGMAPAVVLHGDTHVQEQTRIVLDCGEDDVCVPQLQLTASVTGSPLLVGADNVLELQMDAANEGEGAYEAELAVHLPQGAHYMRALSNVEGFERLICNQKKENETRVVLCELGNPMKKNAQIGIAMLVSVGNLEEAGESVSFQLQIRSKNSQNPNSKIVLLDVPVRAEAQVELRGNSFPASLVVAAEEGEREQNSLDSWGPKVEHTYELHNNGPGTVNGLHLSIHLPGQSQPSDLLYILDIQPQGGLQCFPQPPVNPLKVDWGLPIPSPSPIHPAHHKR
Sequence of Integrin alpha-IIb/beta-3 (Homo sapiens, UniProt P05106+P08514) (P08514 891-1039 limits assumed): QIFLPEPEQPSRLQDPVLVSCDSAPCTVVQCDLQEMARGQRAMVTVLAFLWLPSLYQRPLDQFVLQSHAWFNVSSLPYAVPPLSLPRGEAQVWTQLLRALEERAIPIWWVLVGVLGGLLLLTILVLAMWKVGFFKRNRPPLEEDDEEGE

[5] = target: T3, Integrin alpha-5/beta-1 (Homo sapiens, UniProt P05556+P08648); experiment: Antagonist activity at alpha5beta1 integrin receptor (unknown origin) by cell-based ELISA
[6] = target: T1, Integrin alpha-V/beta-5; experiment: Antagonist activity at alphavbeta5 integrin receptor (unknown origin) by cell-based ELISA
[7] = target: T4, Integrin alpha-V/beta-1 (Homo sapiens, UniProt P05556+P06756); experiment: Antagonist activity at alphavbeta1 integrin receptor in HEK293 cells after 4 hrs using p-nitrophenyl phosphate by colorimetry; type: cell-based
T4 sequence (P05556 21-798 limits assumed): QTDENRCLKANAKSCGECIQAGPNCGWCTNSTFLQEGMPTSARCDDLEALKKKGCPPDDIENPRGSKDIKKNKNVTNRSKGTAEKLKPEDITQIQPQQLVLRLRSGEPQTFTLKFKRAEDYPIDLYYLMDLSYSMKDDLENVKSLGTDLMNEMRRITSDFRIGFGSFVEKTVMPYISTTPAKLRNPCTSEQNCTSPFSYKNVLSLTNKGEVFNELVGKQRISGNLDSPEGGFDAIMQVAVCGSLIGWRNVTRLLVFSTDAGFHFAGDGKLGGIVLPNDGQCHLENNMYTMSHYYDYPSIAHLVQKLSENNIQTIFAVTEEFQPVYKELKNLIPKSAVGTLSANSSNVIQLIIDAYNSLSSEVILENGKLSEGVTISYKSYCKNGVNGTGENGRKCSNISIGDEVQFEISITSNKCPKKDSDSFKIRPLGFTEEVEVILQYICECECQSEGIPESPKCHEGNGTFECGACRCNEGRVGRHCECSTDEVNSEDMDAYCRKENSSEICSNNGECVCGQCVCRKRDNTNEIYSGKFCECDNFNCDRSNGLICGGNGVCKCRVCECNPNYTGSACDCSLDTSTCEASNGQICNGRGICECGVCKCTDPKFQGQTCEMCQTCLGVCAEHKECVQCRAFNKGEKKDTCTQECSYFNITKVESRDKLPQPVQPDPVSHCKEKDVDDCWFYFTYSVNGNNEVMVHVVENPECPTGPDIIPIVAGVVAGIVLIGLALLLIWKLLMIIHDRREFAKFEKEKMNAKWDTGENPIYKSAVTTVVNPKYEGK
T4 sequence (P06756 31-889 limits assumed): as the sequence (P06756 31-889 limits assumed) above
T4 sequence (P06756 891-1048 limits assumed): as the sequence (P06756 891-1048 limits assumed) above

[8] = target: T2, Integrin alpha-V/beta-3; experiment: Antagonist activity at alphavbeta3 integrin receptor in HEK293 cells after 4 hrs using p-nitrophenyl phosphate by colorimetry; type: cell-based
[9] = target: Integrin alpha-V/beta-5 (Homo sapiens) [+]; experiment: Antagonist activity at alphavbeta5 integrin receptor in HEK293 cells after 4 hrs using p-nitrophenyl phosphate by colorimetry
[10] = target: T3, Integrin alpha-5/beta-1; experiment: Antagonist activity at alpha5beta1 integrin receptor in K562 cells after 4 hrs using p-nitrophenyl phosphate by colorimetry; type: cell-based
[11] = target: Integrin alpha-V/beta-6 (Homo sapiens, UniProt P06756+P18564); experiment: Antagonist activity at alphavbeta6 integrin receptor in human HT29 cells after 4 hrs using p-nitrophenyl phosphate by colorimetry; type: cell-based, HT-29
[12] = target: Integrin alpha-V/beta-8 (Homo sapiens, UniProt P06756+P26012); experiment: Antagonist activity at human recombinant alphavbeta8 integrin receptor expressed in HEK293 cells after 4 hrs using p-nitrophenyl phosphate by colorimetry; type: cell-based
[13] = target: T4, Integrin alpha-V/beta-1; experiment: Antagonist activity at alphavbeta1 integrin receptor (unknown origin) by cell-based ELISA
[14] = target: T3, Integrin alpha-5/beta-1; experiment: Antagonist activity at alpha5beta1 integrin receptor (unknown origin) by cell-free ELISA; type: protein-complex assay
[15] = target: T5, Integrin alpha-IIb/beta-3 (Mus musculus, UniProt O54890+Q9QUM0); experiment: Antagonist activity at mouse endothelial alpha2bbeta3 integrin receptor by cell adhesion assay; type: protein-complex assay
T5 sequence (Q9QUM0 whole entry): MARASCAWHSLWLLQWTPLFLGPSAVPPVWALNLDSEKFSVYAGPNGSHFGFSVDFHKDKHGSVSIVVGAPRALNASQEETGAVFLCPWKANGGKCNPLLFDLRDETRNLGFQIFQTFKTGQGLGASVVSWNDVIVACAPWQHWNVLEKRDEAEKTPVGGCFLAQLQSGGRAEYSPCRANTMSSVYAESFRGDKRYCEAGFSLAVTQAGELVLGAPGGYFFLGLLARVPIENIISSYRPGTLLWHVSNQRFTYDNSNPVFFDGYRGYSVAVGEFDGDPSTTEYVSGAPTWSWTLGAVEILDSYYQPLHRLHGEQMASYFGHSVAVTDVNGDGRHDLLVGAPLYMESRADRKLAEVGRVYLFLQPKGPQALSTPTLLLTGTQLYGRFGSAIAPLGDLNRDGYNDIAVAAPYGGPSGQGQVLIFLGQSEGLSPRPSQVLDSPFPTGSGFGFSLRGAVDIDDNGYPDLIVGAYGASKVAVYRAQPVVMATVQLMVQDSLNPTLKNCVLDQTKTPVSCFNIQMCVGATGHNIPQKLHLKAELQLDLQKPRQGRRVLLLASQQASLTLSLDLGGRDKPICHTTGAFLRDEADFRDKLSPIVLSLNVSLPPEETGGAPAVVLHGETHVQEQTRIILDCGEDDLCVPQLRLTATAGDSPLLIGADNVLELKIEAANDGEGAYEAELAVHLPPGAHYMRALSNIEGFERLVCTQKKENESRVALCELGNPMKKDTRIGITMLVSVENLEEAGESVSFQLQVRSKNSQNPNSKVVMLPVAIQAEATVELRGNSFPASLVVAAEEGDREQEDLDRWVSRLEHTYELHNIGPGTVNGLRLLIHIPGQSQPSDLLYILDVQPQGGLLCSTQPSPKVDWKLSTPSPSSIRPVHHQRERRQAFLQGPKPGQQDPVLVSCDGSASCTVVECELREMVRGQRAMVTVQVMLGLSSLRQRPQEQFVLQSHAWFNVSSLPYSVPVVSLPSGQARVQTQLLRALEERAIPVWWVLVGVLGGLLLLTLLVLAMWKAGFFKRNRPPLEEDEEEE
T5 sequence (O54890 whole entry): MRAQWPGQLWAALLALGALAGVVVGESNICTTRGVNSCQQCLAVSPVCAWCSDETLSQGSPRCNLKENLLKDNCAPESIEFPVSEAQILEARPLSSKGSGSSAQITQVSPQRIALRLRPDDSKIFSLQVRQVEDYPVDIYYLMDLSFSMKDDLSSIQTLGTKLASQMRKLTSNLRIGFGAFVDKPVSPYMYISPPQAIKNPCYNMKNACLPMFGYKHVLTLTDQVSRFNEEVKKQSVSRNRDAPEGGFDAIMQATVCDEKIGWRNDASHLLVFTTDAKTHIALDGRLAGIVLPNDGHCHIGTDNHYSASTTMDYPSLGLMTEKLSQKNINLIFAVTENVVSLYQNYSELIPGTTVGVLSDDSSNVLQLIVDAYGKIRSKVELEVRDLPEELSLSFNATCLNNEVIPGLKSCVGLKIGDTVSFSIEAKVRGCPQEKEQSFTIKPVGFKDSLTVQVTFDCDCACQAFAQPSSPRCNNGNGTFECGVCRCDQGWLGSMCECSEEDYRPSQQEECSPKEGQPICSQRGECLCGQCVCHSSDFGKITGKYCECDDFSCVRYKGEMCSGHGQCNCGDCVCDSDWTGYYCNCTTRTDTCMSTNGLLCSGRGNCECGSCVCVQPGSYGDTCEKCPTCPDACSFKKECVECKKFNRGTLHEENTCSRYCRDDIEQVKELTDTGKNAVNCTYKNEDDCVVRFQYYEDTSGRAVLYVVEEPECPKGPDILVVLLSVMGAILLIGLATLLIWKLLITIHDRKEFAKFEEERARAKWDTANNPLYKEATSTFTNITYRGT

[16] = target: T6, Integrin alpha-V/beta-3 (Mus musculus, UniProt O54890+P43406); experiment: Antagonist activity at mouse endothelial alphavbeta3 integrin receptor by cell adhesion assay; type: protein-complex assay
T6 sequence (O54890 whole entry): T5 sequence (O54890 whole entry)
T6 sequence (P43406 whole entry): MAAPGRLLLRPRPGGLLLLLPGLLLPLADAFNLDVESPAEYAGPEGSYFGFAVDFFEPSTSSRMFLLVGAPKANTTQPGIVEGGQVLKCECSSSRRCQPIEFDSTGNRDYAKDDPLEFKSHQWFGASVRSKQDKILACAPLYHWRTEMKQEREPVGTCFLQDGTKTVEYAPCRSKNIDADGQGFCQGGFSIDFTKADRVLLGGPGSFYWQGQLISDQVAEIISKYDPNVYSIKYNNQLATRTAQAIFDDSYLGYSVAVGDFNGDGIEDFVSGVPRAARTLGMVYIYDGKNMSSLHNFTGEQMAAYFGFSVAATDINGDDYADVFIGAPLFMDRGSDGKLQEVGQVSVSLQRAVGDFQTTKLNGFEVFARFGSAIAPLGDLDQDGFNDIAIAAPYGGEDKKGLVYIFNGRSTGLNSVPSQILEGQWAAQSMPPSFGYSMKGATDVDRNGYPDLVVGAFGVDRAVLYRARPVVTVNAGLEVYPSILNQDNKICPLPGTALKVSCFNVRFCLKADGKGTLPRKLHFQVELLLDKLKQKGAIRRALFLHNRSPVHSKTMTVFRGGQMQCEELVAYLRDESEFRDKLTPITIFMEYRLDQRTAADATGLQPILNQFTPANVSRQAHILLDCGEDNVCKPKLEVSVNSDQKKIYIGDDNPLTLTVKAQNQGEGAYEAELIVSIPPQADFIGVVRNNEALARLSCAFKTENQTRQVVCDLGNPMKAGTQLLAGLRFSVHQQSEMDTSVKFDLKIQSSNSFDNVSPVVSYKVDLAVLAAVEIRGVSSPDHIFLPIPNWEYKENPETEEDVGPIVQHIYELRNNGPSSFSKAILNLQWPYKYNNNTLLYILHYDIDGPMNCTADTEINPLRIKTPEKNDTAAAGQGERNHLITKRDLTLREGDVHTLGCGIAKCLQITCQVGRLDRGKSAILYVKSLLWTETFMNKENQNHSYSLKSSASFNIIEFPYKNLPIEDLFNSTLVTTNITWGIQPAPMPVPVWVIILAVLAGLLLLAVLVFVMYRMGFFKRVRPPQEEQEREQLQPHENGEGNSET

T1 sequence (P06756 31-889 limits assumed): as the sequence (P06756 31-889 limits assumed) above
T1 sequence (P06756 891-1048 limits assumed): as the sequence (P06756 891-1048 limits assumed) above
T1 sequence (P18084 24-799 limits assumed): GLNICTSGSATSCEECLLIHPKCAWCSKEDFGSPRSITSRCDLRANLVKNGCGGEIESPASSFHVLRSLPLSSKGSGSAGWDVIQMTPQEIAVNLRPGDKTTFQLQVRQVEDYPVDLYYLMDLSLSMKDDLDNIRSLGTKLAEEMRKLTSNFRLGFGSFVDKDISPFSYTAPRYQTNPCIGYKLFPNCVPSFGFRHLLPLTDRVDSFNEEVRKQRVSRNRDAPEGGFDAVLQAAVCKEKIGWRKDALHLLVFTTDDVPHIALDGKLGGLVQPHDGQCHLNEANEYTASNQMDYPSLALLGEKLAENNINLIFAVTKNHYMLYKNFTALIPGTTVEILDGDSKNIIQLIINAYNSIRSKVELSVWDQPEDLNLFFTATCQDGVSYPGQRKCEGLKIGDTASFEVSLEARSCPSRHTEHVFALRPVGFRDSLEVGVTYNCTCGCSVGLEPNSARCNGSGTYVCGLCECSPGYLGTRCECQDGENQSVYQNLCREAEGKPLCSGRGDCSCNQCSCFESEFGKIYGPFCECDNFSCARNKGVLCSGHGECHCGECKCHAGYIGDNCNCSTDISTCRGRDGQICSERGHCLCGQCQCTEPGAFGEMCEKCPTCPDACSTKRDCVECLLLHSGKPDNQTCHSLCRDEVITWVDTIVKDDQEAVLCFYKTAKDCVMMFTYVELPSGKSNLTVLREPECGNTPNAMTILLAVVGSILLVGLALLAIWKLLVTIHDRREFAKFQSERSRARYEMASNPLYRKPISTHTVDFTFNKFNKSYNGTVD

SMILES: O=C(O)CC1CC(CNC(=O)CCCNc2ccccn2)=CCc2ccccc21 (stereo unspecified)
IC50 [1]: 1 nM
IC50 [2]: 2 nM

SMILES: Cc1cc(C)c(S(=O)(=O)N[C@@H](CNC(=O)c2ccc(-c3cccc(CN=C(N)N)c3)s2)C(=O)O)c(C)c1
IC50 [3]: 3.5 nM
IC50 [4]: 0.2 nM
IC50 [5]: 20 nM
IC50 [6]: 60 nM

SMILES: O=C(O)C[C@H](NC(=O)CNC(=O)c1cncc(N=C2NCC(O)CN2)c1)c1cc(Cl)cc(Br)c1O (stereo partly specified)
IC50 [7]: 1.59 nM
IC50 [9]: 1.5 nM
IC50 [4]: 380 nM
IC50 [10]: 64 nM
IC50 [11]: 1.13 nM
IC50 [12]: 0.65 nM

SMILES: N=C(N)NCCCCC(=O)NCC(=O)NC(CC(=O)O)c1cccnc1 (stereo unspecified)
IC50 [3]: 120 nM
IC50 [4]: 9 nM
IC50 [2]: 10 nM
IC50 [5]: 70000 nM
IC50 [13]: 317 nM
IC50 [6]: 23 nM

SMILES: N=C(N)NCCC[C@H](NC(=O)OCc1ccccc1)[C@H]1CC[C@H](C(=O)NC[C@H](NC(=O)OCc2ccccc2)C(=O)O)O1
IC50 [4]: 67 nM
IC50 [2]: 52 nM

SMILES: C=Cc1cnc(NC[C@@H]2C[C@]3(CC(C(=O)NC[C@H](NS(=O)(=O)c4c(C)cc(C)cc4C)C(=O)O)=NO3)CN2C(=O)OCCCC)[nH]1
IC50 [2]: 87 nM
IC50 [14]: 0.39 nM

SMILES: Cc1cc(C)c(S(=O)(=O)N[C@@H](CNC(=O)c2ccc3c(cnn3CCCNc3ncc[nH]3)c2)C(=O)O)c(C)c1
IC50 [15]: 21 nM
IC50 [16]: 2.3 nM

The next lines start with the values.

IC50 [3]: 0.033 nM
IC50 [4]: 0.3 nM
SMILES: N=C(N)NCc1cccc(-c2ccc(C(=O)NC[C@H](NS(=O)(=O)c3ccccc3)C(=O)O)s2)c1

IC50 [7]: 10.4 nM
IC50 [8]: 1.6 nM
IC50 [9]: 18.1 nM
IC50 [4]: 257 nM
IC50 [10]: 316 nM
IC50 [11]: 11.7 nM
IC50 [12]: 1.71 nM
SMILES: O=C(O)C[C@H](NC(=O)CNC(=O)c1cc(O)cc(NC2=NCC(O)CN2)c1)c1cc(Cl)cc(Br)c1O (stereo partly specified)

IC50 [4]: 1.5 nM
SMILES: N=C(N)NCCC[C@@H]1NC(=O)CNC(=O)[C@H](CC(=O)O)N[C@H](C(=O)O)C[S+]([O-])CC(=O)N[C@H](Cc2ccc(O)cc2)C1=O (stereo partly specified)

IC50 [1]: 1.02 nM
IC50 [2]: 1.35 nM
SMILES: N=C(N)NCCCc1cn(CC(=O)N[C@@H](CC(=O)O)c2ccccc2)nn1

IC50 [1]: 1.7 nM
IC50 [2]: 3.2 nM
IC50 [14]: 421 nM
SMILES: O=C(N[C@@H](CNC(=O)c1ccc(CN(Cc2nc3ccccc3[nH]2)C(=O)NC2CCCCC2)cc1)C(=O)O)OCc1ccccc1

IC50 [15]: 12 nM
IC50 [16]: 8.5 nM
SMILES: O=C(NC[C@H](NS(=O)(=O)c1c(Cl)cccc1Cl)C(=O)O)c1ccc2c(cnn2CCCNc2ncc[nH]2)c1

— ChEMBL document CHEMBL3351286, “Strategies to inhibit tumor associated integrin receptors: rationale for dual and multi-antagonists” (J Med Chem, 2014)
